Laboratory results published in patent publication US20060252073A1, “Compositions and methods for the treatment of cancer” (Regents of the University of Michigan, priority 2005, published 2006).
“And” between values parts separate entries of the source, which are not always exact repeats. Equal entries are not always repeated.

Experiments:
[1] = system: established leukemias (AML and ALL); test: Rapamycin against established leukemias in mice transplanted with Pten fl/fl Mx-1-Cre bone marrow cells, starting 15 weeks after pIpC; type: in vivo; settings: daily 4 mg/kg from 15 weeks after pIpC
Procedure: (§1) Administration of Rapamycin.
(§2) Histopathology. Spleen, liver, and thymus samples were fixed in 10% neutral buffered formalin and paraffin embedded. Thin sections (5 μm) were cut on a microtome and stained with hematoxylin and eosin using standard protocols. Chloroacetate esterase staining was performed using a Leder stain kit (Sigma).
To test if rapamycin was effective against established leukemias, mice that had been transplanted with Pten^fl/fl Mx-1-Cre bone marrow cells were treated with daily injections of vehicle or rapamycin, beginning 15 weeks after pIpC.
Mice that had been transplanted with 1×10^6 Pten^fl/fl Mx-1-Cre donor (CD45.2^+) bone marrow cells along with 0.5×10^6 control (CD45.1^+) bone marrow cells were treated with daily injections of vehicle or rapamycin (4 mg/kg), starting 15 weeks after pIpC treatment.

[2] = system: Pten^fl/flMx-1-Cre mice; test: Rapamycin given immediately after Pten deletion (pIpC) in Pten fl/fl Mx-1-Cre mice; type: in vivo; settings: daily injections for 7 days after pIpC treatment
Procedure: Administration of polyinosine-polycytidine (pIpC) to induce Mx-1-Cre expression. pIpC (Sigma P-0913) was resuspended with DPBS at a concentration of 2 mg/ml and passed through a 0.22 uM filter (See, e.g., Mikkola et al., Nature 421, 54751 (2003)). Mice received 25 ug of pIpC/g of body mass every other day for 2 weeks.
as §1, §2
All 3 such mice in this experiment died within 3-4 weeks of pIpC treatment, with AML and ALL (FIG. 9c).

[3] = system: Flk2^−Sca-1^+Lin^−c-kit^+CD48^− cells (HSCs); settings: mouse, in vivo
Text: Flow cytometry and the isolation of hematopoietic stem cells (HSCs). Bone marrow cells were flushed from long bones with Hank's buffered salt solution without calcium or magnesium, supplemented with 2% heat-inactivated calf serum (GIBCO, Grand Island, N.Y.; HBSS^+). Cells were triturated and filtered through a nylon screen (45 μm, Sefar America, Kansas City, Mo.) to obtain a single cell suspension. Flk2^−Sca-1^+ Lineage^− c-kit^+ CD48^− HSCs and Thy1.1^low Sca-1^+ Mac-1^low CD4^low B220 MPPs were isolated as previously described (See, e.g., Christensen and Weissman, Proc Natl Acad Sci USA 98, 14541-6 (2001); Kiel et al., Cell 121, 1109-21 (2005); Morrison and Weissman, Immunity 1, 661-673 (1994)). For isolation of Flk2^−Sca-1^+ Lineage c-kit^+ CD48^− HSCs, whole bone marrow cells were incubated with unconjugated monoclonal antibodies to lineage markers including B220 (6B2), CD3 (KT31.1), CD4 (GK1.5), CD5 (53-7.3), CD8 (53-6.7), Gr-1 (8C5), Mac-1 (M1/70) and Terl19. Following dilution, pelleted cells were resuspended in anti-rat IgG-specific F(ab)2 conjugated to phycoerythrin (PE; Jackson ImmunoResearch, West Grove, Pa.). […] When CD45.2^+ HSCs were analyzed, CD45.2 (104-FITC; BD PharMingen) and CD48 (HM48-1-PE, eBioscience) were used. […]
Cell cycle analysis. BrdU incorporation was measured by flow-cytometry (BD PharMingen). […]

## CO[C@H]1C[C@@H]2CC[C@@H](C)[C@@](O)(O2)C(=O)C(=O)N2CCCC[C@H]2C(=O)O[C@H]([C@H](C)C[C@@H]2CC[C@@H](O)[C@H](OC)C2)CC(=O)[C@H](C)/C=C(\C)[C@@H](O)[C@@H](OC)C(=O)[C@H](C)C[C@H](C)/C=C/C=C/C=C/1C [Rapamycin]
[1]; average of 3 mice
  Bone marrow HSCs that were donor type, average: 39 ± 6%
[1]; individual mice, Pten-deficient donor (CD45.2+) HSCs, 4 mg/kg
  Bone marrow HSCs that were donor type: 35% and 45% and 36%
[2]
  bone marrow and spleen cellularity in control mice: without significantly affecting
[3]
  HSC numbers in control mice: without affecting
  proliferation of HSCs from control littermates: without affecting
